According to the supplement of paper PMC7017272:
± gives the standard deviation of the averaged measurements.

Experiments:
UT-SCC-24A = assay: drug sensitivity score (DSS); higher = more sensitive; conditions: treatment time: 3 days
Procedure: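 HNSCC cell lines (500 cells/well, 384-well) were cultured on plastic, on top of (2D) or embedded (3D) in Matrigel or human leiomyoma matrix Myogel (500 ug/mL; Myogel 3D mixed with rat collagen I). Cells were treated for 3 days with 5 ten-fold concentrations of each drug, and viability was read by CellTiter-Glo. Suffixes _1/_2/_3 on drug names are replicates.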

UT-SCC-40 [1] = assay: relative IC50 (midpoint of the fitted curve; maximal inhibition may be below 50%); higher = less potent; conditions: treatment time: 3 days
How it was run: (§1)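 HPV-negative HNSCC cell lines were plated at 500 cells/well in 384-well plates, either on plastic, on wells coated with Matrigel or Myogel (500 µg/mL), or embedded in Matrigel or Myogel plus rat collagen I. Each compound was tested at five 10-fold concentrations over 3 days. Viability was measured by CellTiter-Glo 2.0 luminescence, and IC50, maximal inhibition and drug sensitivity score came from percent-inhibition dose–response curves fitted in the FIMM pipeline after normalisation to vehicle (0.1% DMSO) and cell-killing control wells.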

UT-SCC-24B [2] = assay: as above; conditions: culture condition: on top of Myogel; treatment time: 3 days
How it was run: as §1

UT-SCC-44 [3] = assay: as above; conditions: treatment time: 3 days
How it was run: as §1

UT-SCC-73 [4] = assay: as above; conditions: treatment time: 3 days
How it was run: as §1

UT-SCC-106A [5] = assay: as above; conditions: treatment time: 3 days
How it was run: as §1

UT-SCC-8 [6] = assay: as above; conditions: treatment time: 3 days
How it was run: as §1

UT-SCC-14 [7] = assay: as above; conditions: treatment time: 3 days
How it was run: as §1

UT-SCC-42B [8] = assay: as above; conditions: culture condition: on top of Myogel; treatment time: 3 days
How it was run: as §1

UT-SCC-42A = assay: maximal % inhibition of viability relative to DMSO; higher = stronger effect; conditions: treatment time: 3 days
Procedure: (§2)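 HNSCC cell lines (500 cells/well, 384-well) were cultured on plastic, on top of (2D) or embedded (3D) in Matrigel or human leiomyoma matrix Myogel (500 ug/mL; Myogel 3D mixed with rat collagen I). Cells were treated for 3 days with 5 ten-fold concentrations of each drug, and viability was read by CellTiter-Glo. Viability was normalised to DMSO and benzethonium chloride controls and fitted with the FIMM DSRT pipeline to give IC50 (nM), maximal % inhibition and DSS. Suffixes _1/_2/_3 are replicates. Only inhibition-mode (IC50) fits are kept.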

UT-SCC-40 [9] = assay: as above; conditions: treatment time: 3 days
Procedure: as §2

UT-SCC-24B [10] = assay: as above; conditions: treatment time: 3 days
Procedure: as §2

UT-SCC-28 = assay: as above; conditions: treatment time: 3 days
Procedure: as §2

UT-SCC-81 = assay: as above; conditions: treatment time: 3 days
Procedure: as §2

UT-SCC-44 [11] = assay: as above; conditions: treatment time: 3 days
Procedure: as §2

UT-SCC-73 [12] = assay: as above; conditions: treatment time: 3 days
Procedure: as §2

UT-SCC-106A [13] = assay: as above; conditions: treatment time: 3 days
Procedure: as §2

UT-SCC-8 [14] = assay: as above; conditions: treatment time: 3 days
Procedure: as §2

UT-SCC-14 [15] = assay: as above; conditions: treatment time: 3 days
Procedure: as §2

UT-SCC-42B [16] = assay: as above; conditions: treatment time: 3 days
Procedure: as §2

[17] = culture condition: embedded in Matrigel
[18] = culture condition: embedded in Myogel + collagen I
[19] = culture condition: on top of Matrigel
[20] = culture condition: on top of Myogel
[21] = culture condition: plastic 2D (no matrix)

- relative IC50 (UT-SCC-40 [1]; [18]): 2.84 nM
- relative IC50 (UT-SCC-40 [1]; [19]): 0.896 nM
- relative IC50 (UT-SCC-24B [2]): 1 nM
- relative IC50 (UT-SCC-44 [3]; [19]): 0.711 nM
- relative IC50 (UT-SCC-44 [3]; [21]): 0.691 nM
- relative IC50 (UT-SCC-73 [4]; [18]): 0.997 nM
- relative IC50 (UT-SCC-73 [4]; [19]): 0.383 nM
- relative IC50 (UT-SCC-73 [4]; [21]): 1.06 nM
- relative IC50 (UT-SCC-106A [5]; [19]): 3.18 nM
- relative IC50 (UT-SCC-106A [5]; [20]): 4.08 nM
- relative IC50 (UT-SCC-106A [5]; [21]): 1.95 nM
- relative IC50 (UT-SCC-8 [6]; [17]): 0.997 nM
- relative IC50 (UT-SCC-8 [6]; [20]): 0.785 nM
- relative IC50 (UT-SCC-8 [6]; [21]): 0.669 nM
- relative IC50 (UT-SCC-14 [7]; [17]): 0.458 nM
- relative IC50 (UT-SCC-14 [7]; [18]): 0.654 nM
- relative IC50 (UT-SCC-14 [7]; [19]): 0.765 nM
- relative IC50 (UT-SCC-14 [7]; [20]): 0.33 nM
- relative IC50 (UT-SCC-14 [7]; [21]): 0.458 nM
- relative IC50 (UT-SCC-42B [8]): > 98.9 nM
Structure (SMILES): CO[C@H]1C[C@@H]2CC[C@@H](C)[C@@](O)(O2)C(=O)C(=O)N2CCCC[C@H]2C(=O)O[C@H]([C@H](C)C[C@@H]2CC[C@@H](OC(=O)C(C)(CO)CO)[C@H](OC)C2)CC(=O)[C@H](C)/C=C(\C)[C@@H](O)[C@@H](OC)C(=O)[C@H](C)C[C@H](C)/C=C/C=C/C=C/1C [Temsirolimus]
- drug sensitivity score (UT-SCC-24A; [17]): 10.2 ± 11 DSS
- drug sensitivity score (UT-SCC-24A; [18]): 9.67 ± 2.8 DSS
- drug sensitivity score (UT-SCC-24A; [19]): 4.9 ± 1.3 DSS
- drug sensitivity score (UT-SCC-24A; [20]): 5.03 ± 1.2 DSS
- drug sensitivity score (UT-SCC-24A; [21]): 6.07 ± 0.67 DSS
- maximal % inhibition of viability (UT-SCC-42A; [17]): 35 ± 6.8%
- maximal % inhibition of viability (UT-SCC-42A; [18]): 39.1 ± 4.7%
- maximal % inhibition of viability (UT-SCC-42A; [19]): 41 ± 2.4%
- maximal % inhibition of viability (UT-SCC-42A; [20]): 37.4 ± 3.1%
- maximal % inhibition of viability (UT-SCC-42A; [21]): 39.6 ± 2.3%
- maximal % inhibition of viability (UT-SCC-40 [9]; [17]): 33.9 ± 13%
- maximal % inhibition of viability (UT-SCC-40 [9]; [18]): 40.5 ± 20%
- maximal % inhibition of viability (UT-SCC-40 [9]; [19]): 24.6 ± 6.1%
- maximal % inhibition of viability (UT-SCC-40 [9]; [20]): 21.9 ± 3.2%
- maximal % inhibition of viability (UT-SCC-40 [9]; [21]): 22.1 ± 2.3%
- maximal % inhibition of viability (UT-SCC-24B [10]; [17]): 25.8 ± 7.9%
- maximal % inhibition of viability (UT-SCC-24B [10]; [18]): 42.2 ± 4%
- maximal % inhibition of viability (UT-SCC-24B [10]; [19]): 27.4 ± 4.7%
- maximal % inhibition of viability (UT-SCC-24B [10]; [20]): 32.7 ± 1.8%
- maximal % inhibition of viability (UT-SCC-24B [10]; [21]): 29.7 ± 5.7%
- maximal % inhibition of viability (UT-SCC-28; [17]): 29.7 ± 9.9%
- maximal % inhibition of viability (UT-SCC-28; [18]): 37.2 ± 7.1%
- maximal % inhibition of viability (UT-SCC-28; [19]): 38 ± 2.7%
- maximal % inhibition of viability (UT-SCC-28; [21]): 35.3 ± 4.3%
- maximal % inhibition of viability (UT-SCC-81; [17]): 63.3 ± 16%
- maximal % inhibition of viability (UT-SCC-81; [18]): 56.5 ± 6%
- maximal % inhibition of viability (UT-SCC-81; [19]): 44.6 ± 5.2%
- maximal % inhibition of viability (UT-SCC-81; [20]): 54.3 ± 0.82%
- maximal % inhibition of viability (UT-SCC-81; [21]): 49.7 ± 7.5%
- maximal % inhibition of viability (UT-SCC-44 [11]; [17]): 29.4 ± 1.9%
- maximal % inhibition of viability (UT-SCC-44 [11]; [18]): 38.9 ± 6.9%
- maximal % inhibition of viability (UT-SCC-44 [11]; [19]): 38.4 ± 1.5%
- maximal % inhibition of viability (UT-SCC-44 [11]; [20]): 38.6 ± 4%
- maximal % inhibition of viability (UT-SCC-44 [11]; [21]): 35 ± 1.3%
- maximal % inhibition of viability (UT-SCC-73 [12]; [17]): 32 ± 6.7%
- maximal % inhibition of viability (UT-SCC-73 [12]; [18]): 38.7 ± 21%
- maximal % inhibition of viability (UT-SCC-73 [12]; [19]): 29.7 ± 3.1%
- maximal % inhibition of viability (UT-SCC-73 [12]; [20]): 34.5 ± 1.6%
- maximal % inhibition of viability (UT-SCC-73 [12]; [21]): 24 ± 6.6%
- maximal % inhibition of viability (UT-SCC-106A [13]; [17]): 36.2 ± 2.6%
- maximal % inhibition of viability (UT-SCC-106A [13]; [18]): 33.9 ± 5.5%
- maximal % inhibition of viability (UT-SCC-106A [13]; [19]): 36.4 ± 0.4%
- maximal % inhibition of viability (UT-SCC-106A [13]; [20]): 25.1 ± 1.4%
- maximal % inhibition of viability (UT-SCC-106A [13]; [21]): 39.8 ± 5%
- maximal % inhibition of viability (UT-SCC-8 [14]; [17]): 41.8 ± 4.6%
- maximal % inhibition of viability (UT-SCC-8 [14]; [18]): 31.4 ± 11%
- maximal % inhibition of viability (UT-SCC-8 [14]; [19]): 38.9 ± 9.9%
- maximal % inhibition of viability (UT-SCC-8 [14]; [20]): 48.1 ± 8.7%
- maximal % inhibition of viability (UT-SCC-8 [14]; [21]): 42.3 ± 5.6%
- maximal % inhibition of viability (UT-SCC-14 [15]; [17]): 53.5 ± 4.4%
- maximal % inhibition of viability (UT-SCC-14 [15]; [18]): 52.5 ± 4.8%
- maximal % inhibition of viability (UT-SCC-14 [15]; [19]): 50.5 ± 2.5%
- maximal % inhibition of viability (UT-SCC-14 [15]; [20]): 45.4 ± 4.4%
- maximal % inhibition of viability (UT-SCC-14 [15]; [21]): 46.3 ± 8.9%
- maximal % inhibition of viability (UT-SCC-42B [16]; [17]): 25.8 ± 20%
- maximal % inhibition of viability (UT-SCC-42B [16]; [19]): 17.6 ± 6.1%
- maximal % inhibition of viability (UT-SCC-42B [16]; [20]): 9.87 ± 4.1%
- maximal % inhibition of viability (UT-SCC-42B [16]; [21]): 15.3 ± 3.6%
